In patent publication US12325725B2, “Cyclin-dependent kinase degraders and methods of use” (DANA-FARBER CANCER INSTITUTE, INC., priority 2018, dated 2025):

molecular target: T1, CDK8 (Homo sapiens (Human), UniProt P49336); assay: LanthaScreen Eu Kinase Binding Assay (competitive kinase binding assay); conditions: Targeting Ligands of Table 1; displacing the Tracer from the target kinase; read-out: Enzyme IC50
Method: The biological activities of the compounds of the present application can be assessed through a variety of methods known in the art. For example, a kinase competitive binding assay may be used to determine the activity of the compounds of the present application to bind to […]. […] The changes in the signal produced by the reporting ligand when the compound is present relative when the compound is absent are recorded, which are calculated to provide the IC50 of the compound. Compounds of the present application were tested in a competitive kinase binding assay by using commercially available assay system. For example, LanthaScreen® Eu Kinase Binding Assay (Invitrogen™) was used to measure the IC50 of the compounds of the present application in displacing the Tracer from binding to the target kinase, by following the assay protocol from Invitrogen™.
Target sequence in this assay (P49336 whole entry, looked up): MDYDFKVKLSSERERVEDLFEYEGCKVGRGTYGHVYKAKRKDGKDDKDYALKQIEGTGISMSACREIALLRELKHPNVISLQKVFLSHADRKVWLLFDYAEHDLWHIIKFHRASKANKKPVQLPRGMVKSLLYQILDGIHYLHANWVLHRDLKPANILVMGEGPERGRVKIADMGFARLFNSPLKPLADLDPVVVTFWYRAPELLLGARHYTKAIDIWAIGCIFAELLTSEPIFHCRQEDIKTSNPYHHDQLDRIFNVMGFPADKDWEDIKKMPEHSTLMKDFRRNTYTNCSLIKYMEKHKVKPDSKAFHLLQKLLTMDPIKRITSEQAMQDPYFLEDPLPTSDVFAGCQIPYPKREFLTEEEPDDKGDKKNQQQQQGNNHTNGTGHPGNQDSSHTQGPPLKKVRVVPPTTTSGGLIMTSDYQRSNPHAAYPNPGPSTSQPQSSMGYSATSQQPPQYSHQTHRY
Target sequence in this assay (P24863 whole entry partner, looked up): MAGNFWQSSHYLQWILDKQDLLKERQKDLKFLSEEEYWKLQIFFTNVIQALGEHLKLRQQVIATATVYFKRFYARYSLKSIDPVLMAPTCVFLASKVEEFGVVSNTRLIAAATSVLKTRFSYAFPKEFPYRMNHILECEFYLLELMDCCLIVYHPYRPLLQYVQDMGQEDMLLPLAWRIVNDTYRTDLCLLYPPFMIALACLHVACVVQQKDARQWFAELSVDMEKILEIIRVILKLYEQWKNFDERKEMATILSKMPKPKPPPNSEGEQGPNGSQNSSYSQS

Question: For `C[C@]12CC[C@H](O)C[C@@H]1CC[C@@H]1[C@@H]2CC[C@]2(C)[C@@H](c3ccc4ccncc4c3)CC[C@@H]12` [Compound 8b], which IC50 is on record?
Answer: 201 to 300 nM

Question: With `C[C@]12CC[C@H]3[C@@H](CC=C4C[C@@H](O)CC[C@@]43C)[C@@H]1CC[C@@H]2c1ccc2cnccc2c1` [Compound 14] as the compound, how does the IC50 read?
Answer: 2000 to 6000 nM

Question: For `C[C@]12CC[C@H]3[C@@H](CC=C4C[C@@H](O)CC[C@@]43C)[C@@H]1CC[C@@H]2c1ccc2ccncc2c1` [Compound 8a, (3S,8S,9S,10R,13S,14S,17S)-17-(isoquinolin-7-yl)-10,13-dimethyl-2,3,4,7,8,9,10,11,12,13,14,15,16,17-tetradecahydro-1H-cyclopenta[a]phenanthren-3-ol], which IC50 is on record?
Answer: < 100 nM

Question: With `CN(C)[C@@H]1CC[C@@]2(C)[C@@H](CC[C@@H]3[C@@H]2CC[C@]2(C)C(c4ccc5ccncc5c4)=CC[C@@H]32)C1` [Compound 24] as the compound, how does the IC50 read?
Answer: 201 to 300 nM

Question: For `C[C@]12CC[C@H](O)CC1=CC[C@@H]1[C@@H]2CC[C@]2(C)C(c3ccc4cn[nH]c4c3)=CC[C@@H]12` [Compound 7], which IC50 is on record?
Answer: > 6000 nM

Question: For `CN(C)[C@@H]1CC[C@@]2(C)[C@@H](CC[C@@H]3[C@@H]2CC[C@]2(C)[C@@H](c4ccc5ccncc5c4)CC[C@@H]32)C1` [Compound 25], which IC50 is on record?
Answer: < 100 nM

Question: For `CN(C)[C@H]1CC[C@@]2(C)[C@@H](CC[C@@H]3[C@@H]2CC[C@]2(C)[C@@H](c4ccc5ccncc5c4)CC[C@@H]32)C1` [Compound 23, (3S,8R,9S,10S,13S,14S,17S)-(isoquinolin-7-yl)-N,N,10,13-tetramethylhexadecahydro-1H-cyclopenta[a]phenanthren-3-amine], which IC50 is on record?
Answer: < 100 nM

Question: With `C[C@]12CC[C@H](O)CC1=CC[C@@H]1[C@@H]2CC[C@]2(C)C(c3ccc4cnncc4c3)=CC[C@@H]12` [Compound 3] as the compound, how does the IC50 read?
Answer: > 6000 nM

Question: For `C[C@]12CC[C@H]3[C@@H](CC=C4C[C@@H](O)CC[C@@]43C)[C@@H]1CC[C@@H]2c1ccc2nc(N)ncc2c1` [Compound 10], which IC50 is on record?
Answer: 101 to 200 nM

Question: For `C[C@]12CC[C@H](O)CC1=CC[C@@H]1[C@@H]2CC[C@]2(C)C(c3ccc4[nH]ncc4c3)=CC[C@@H]12` [Compound 6], which IC50 is on record?
Answer: > 6000 nM

Question: For `CC(=O)N(C)[C@H]1CC[C@@]2(C)[C@@H](CC[C@@H]3[C@@H]2CC[C@]2(C)[C@@H](c4ccc5ccncc5c4)CC[C@@H]32)C1` [Compound 47, N-((3S,8R,10S,13S,14S,17S)-17-(isoquinolin-7-yl)-10,13-dimethylhexadecahydro-1H-cyclopenta[a]phenanthren-3-yl)-N-methylacetamide], which IC50 is on record?
Answer: < 100 nM

Question: With `C[C@]12CC[C@H]3[C@@H](CC=C4C[C@@H](O)CC[C@@]43C)[C@@H]1CC[C@@H]2c1ccc2c(N)n[nH]c2c1` [Compound 11] as the compound, how does the IC50 read?
Answer: 301 to 700 nM

Question: Which IC50 does the source give for `C[C@]12CC[C@H](O)CC1=CC[C@@H]1[C@@H]2CC[C@]2(C)C(c3ccc4ccncc4c3)=CC[C@@H]12` [Compound 1, (3S,8R,9S,10R,13S,14S)-17-(isoquinolin-7-yl)-10,13-dimethyl-2,3,4,7,8,9,10,11,12,13,14,15-dodecahydro-1H-cyclopenta[a]phenanthren-3-ol] here?
Answer: 101 to 200 nM

Question: With `CN(C)[C@H]1CC[C@@]2(C)C(=CCC3[C@@H]4CC[C@H](c5ccc6ccncc6c5)[C@@]4(C)CC[C@@H]32)C1` (stereo in doubt) [Compound 33, (3S,8R,9S,10R,13S,14S)-17-(isoquinolin-7-yl)-N,N,10,13-tetramethyl-2,3,4,7,8,9,10,11,12,13,14,15,16,17-tetradecahydro-1H-cyclopenta[a]phenanthren-3-amine] as the compound, how does the IC50 read?
Answer: < 100 nM

Question: With `C[C@]12CC[C@H]3[C@@H](CC=C4C[C@@H](O)CC[C@@]43C)[C@@H]1CC[C@@H]2c1ccc2cn[nH]c2c1` [Compound 13] as the compound, how does the IC50 read?
Answer: > 6000 nM

Question: Which IC50 does the source give for `C[C@]12CC[C@H]3[C@@H](CC=C4C[C@@H](O)CC[C@@]43C)[C@@H]1CC[C@@H]2c1ccc2cnncc2c1` [Compound 9] here?
Answer: > 6000 nM

Question: Which IC50 does the source give for `C[C@]12CC[C@H]3[C@@H](CC=C4C[C@@H](O)CC[C@@]43C)[C@@H]1CC[C@@H]2c1ccc2[nH]ncc2c1` [Compound 12] here?
Answer: > 6000 nM

Question: With `C[C@]12CC[C@H](n3ccnn3)C[C@@H]1CC[C@@H]1[C@@H]2CC[C@]2(C)[C@@H](c3ccc4ccncc4c3)CC[C@@H]12` [Compound 39, 7-((3S,8R,9S,10S,13S,14S,17S)-10,13-dimethyl-3-(1H-1,2,3-triazol-1-yl)hexadecahydro-1H-cyclopenta[a]phenanthren-17-yl)isoquinoline] as the compound, how does the IC50 read?
Answer: < 100 nM

Question: With `C[C@]12CC[C@H](O)CC1=CC[C@@H]1[C@@H]2CC[C@]2(C)C(c3ccc4nc(N)ncc4c3)=CC[C@@H]12` [Compound 4] as the compound, how does the IC50 read?
Answer: 2000 to 6000 nM

Question: With `C[C@]12CC[C@H](O)C[C@@H]1CC[C@@H]1[C@@H]2CC[C@]2(C)C(c3ccc4ccncc4c3)=CC[C@@H]12` [Compound 2] as the compound, how does the IC50 read?
Answer: 701 to 2000 nM

same assay, conditions: bifunctional compounds; displacing the Tracer from the target kinase; read-out: Enzyme IC50

Question: Which IC50 does the source give for `CN(C(=O)CCOCCOCCNc1cccc2c1C(=O)N(C1CCC(=O)NC1=O)C2=O)[C@H]1CC[C@]2(C)C3CC[C@]4(C)[C@@H](c5ccc6ccncc6c5)CC[C@H]4C3CC[C@H]2C1` (stereo partly drawn) [Compound I-2, 3-(2-(2-((2-(2,6-dioxopiperidin-3-yl)-1,3-dioxoisoindolin-4-yl)amino)ethoxy)ethoxy)-N-((3S,10S,17S)-17-(isoquinolin-7-yl)-10,13-dimethylhexadecahydro-1H-cyclopenta[a]phenanthren-3-yl)-N-methylpropanamide] here?
Answer: 101 to 200 nM

Question: With `CN(C(=O)CCOCCOCCOCCOCCNc1cccc2c1C(=O)N(C1CCC(=O)NC1=O)C2=O)[C@H]1CC[C@]2(C)C3CC[C@]4(C)[C@@H](c5ccc6ccncc6c5)CC[C@H]4C3CC[C@H]2C1` (stereo partly drawn) [Compound I-1, 1-((2-(2,6-dioxopiperidin-3-yl)-1,3-dioxoisoindolin-4-yl)amino)-N-((3S,5S,1&S,13S,14S,17S)-17-(isoquinolin-7-yl)-10,13-dimethylhexadecahydro-1H-cyclopenta[a]phenanthren-3-yl)-N-methyl-3,6,9,12-tetraoxapentadecan-15-amide] as the compound, how does the IC50 read?
Answer: 101 to 200 nM

Question: For `CN1C(=O)CCC(N2C(=O)c3cccc(NCCOCCOCCOCCOCCC(=O)N(C)[C@H]4CC[C@]5(C)C6CC[C@]7(C)[C@@H](c8ccc9ccncc9c8)CC[C@H]7C6CC[C@H]5C4)c3C2=O)C1=O` (stereo partly drawn) [Compound I-5, N-((3S,5S,10S,13S,14S,17S)-17-(isoquinolin-7-yl)-10,13-dimethylhexadecahydro-1H-cyclopenta[a]phenanthren-3-yl)-N-methyl--((2-(1-methyl-2,6-dioxopiperidin-3-yl)-1,3-dioxoisoindolin-4-yl)amino)-3,6,9,12-tetraoxapentadecan-15-amide], which IC50 is on record?
Answer: 301 to 700 nM

Question: For `CN(C(=O)CCOCCOCCNc1cccc2c1C(=O)N(C1CCC(=O)NC1=O)C2=O)[C@H]1CC[C@@]2(C)C(CCC3C4CC[C@H](c5ccc6ccncc6c5)C4(C)CCC32)C1` (stereo partly drawn) [Compound I-3, 3-(2-(2-((2-(2,6-dioxopiperidin-3-yl)-1,3-dioxoisoindolin-4-yl)amino)ethoxy)ethoxy)-N-((3S,10S,17S)-17-(isoquinolin-7-yl)-10,13-dimethylhexadecahydro-1H-cyclopenta[a]phenanthren-3-yl)-N-methylpropanamide], which IC50 is on record?
Answer: 201 to 300 nM

test system: pS727-STAT1 (CDK8 substrate) in HepG2 cells; assay: Western blot of S727-STAT1 phosphorylation in IFNγ-treated HepG2 cells; assay type: cell-based; conditions: 18 h with IFNγ, Compound 33 at 0.5, 1, 5 μM, DCA at 0.1, 1 μM
Method: FIG. 4 is a western blot illustrating inhibition of phosphorylation of S727-STAT1, a known CDK8 substrate, to form pS727-STAT1. pS727-STAT1 and total STAT1 were from HepG2 cells independently treated for 18 h with interferon gamma (IFNγ) and 0.5 μM, 1 μM, or 5 μM Compound 33, or with IFNγ and 0.1 μM or 1 μM dehydrocortistatin A (“DCA”).

Question: Which “inhibition of S727 phosphorylation (pS727-STAT1 vs total STAT1, western blot)” value does the source give for `CN(C)[C@H]1CC[C@@]2(C)C(=CCC3[C@@H]4CC[C@H](c5ccc6ccncc6c5)[C@@]4(C)CC[C@@H]32)C1` (stereo in doubt) [Compound 33, (3S,8R,9S,10R,13S,14S)-17-(isoquinolin-7-yl)-N,N,10,13-tetramethyl-2,3,4,7,8,9,10,11,12,13,14,15,16,17-tetradecahydro-1H-cyclopenta[a]phenanthren-3-amine] here?
Answer: dose-dependent inhibition

Question: Which “inhibition of S727 phosphorylation (pS727-STAT1 vs total STAT1, western blot)” value does the source give for `CN(C)[C@H]1C[C@@]23CC[C@@]4(O2)C(=CC[C@]2(C)C(c5ccc6ccncc6c5)=CC[C@H]24)C=C3[C@@H](O)[C@@H]1O` [DCA, dehydrocortistatin A, reference compound] here?
Answer: dose-dependent inhibition

molecular target: T1, CDK8; assay: not given; conditions: cited from earlier work
Target sequence in this assay (P49336 whole entry, looked up, species assumed): as the sequence (P49336 whole entry, looked up) above
Target sequence in this assay (P24863 whole entry partner, looked up, species assumed): as the sequence (P24863 whole entry partner, looked up) above

Question: For `CN(C)[C@H]1C[C@@]23CC[C@@]4(O2)C(=CC[C@]2(C)C(c5ccc6ccncc6c5)=CC[C@H]24)C=C3[C@@H](O)[C@@H]1O` [DCA, dehydrocortistatin A, reference compound], which IC50 is on record?
Answer: 17 nM
